Results on 1 compound are retold here after publication PMC7459852, “Identification of 6-(piperazin-1-yl)-1,3,5-triazine as a chemical scaffold with broad anti-schistosomal activities” (Wellcome Open Research, 2020).

In this experiment the test system is S. mansoni miracidia. Briefly: Miracidia to sporocyst transformation screens. The format is cell-based, Schistosoma mansoni. The conditions noted are these: 48 h. The method, then:
Following hatching of S. mansoni eggs, miracidia were incubated on ice for 15 min and then centrifuged at 700 x g for 5 min at 4°C. The miracidia pellet was then re-suspended in 5 ml of Chernin's balanced salt solution (CBSS), subjected to pelleting and two subsequent washes (all at 700 x g for 5 min at 4°C). Afterwards, the supernatant was carefully removed with a serological pipette and the miracidia-enriched pellet was resuspended with CBSS supplemented with 1 mg/ml each of glucose and trehalose and 500 µl of Penicillin-Streptomycin (containing 10,000 units penicillin and 10 mg streptomycin/ml, P4333, Sigma-Aldrich). In preparation for the screens, CBSS (250 µl) was aliquoted to each well of a 24-well plate followed by addition of each compound in DMSO (1 mM concentration in 1% DMSO) or DMSO alone (1%, negative control). Next, approximately 20-25 miracidia (in 250 µl of CBSS) were aliquoted to each well. […] Both preliminary and secondary screens were performed in duplicate on two separate occasions (two independent biological replicates). Miracidia were incubated for 48 h at 26°C before being evaluated using an Olympus inverted light microscope for morphological and behavioural changes differing from the control wells. Dead, partially transformed and fully transformed miracidia were enumerated in the DMSO control and the assay plates as previously described, [23], [59]. […] Absence of ciliated plates attached to the surface of the parasite and formation of sporocyst tegument defined the so-called “fully transformed” parasites.

Usually inhibition stands for the share of the control response that was lost under treatment. Lower therefore signals a response near the control. As to `c1ccc(Nc2nc(N3CCCC3)nc(N3CCNCC3)n2)cc1` [Compound 7], under “5, 2 and 0.5 µM”, the “inhibition of miracidia transformation” value was 20–25%. For the same compound, the effect on miracidia result (50 and 25 µM) was “completely lethal”. Under “Schistosoma mansoni, 10 µM”, this compound had an inhibition at 10 µM of 45%.
